In US20050170391A1, “TAUT1 transporters expressed in blood brain barrier cells” (Xenoport, Inc., priority 2004, published 2005) one finds IC50 and pIC50 data, which are given here for four compounds.

In one experiment the target is T1, TAUT1 (Homo sapiens, UniProt P31641).
T1 sequence (P31641 1-620): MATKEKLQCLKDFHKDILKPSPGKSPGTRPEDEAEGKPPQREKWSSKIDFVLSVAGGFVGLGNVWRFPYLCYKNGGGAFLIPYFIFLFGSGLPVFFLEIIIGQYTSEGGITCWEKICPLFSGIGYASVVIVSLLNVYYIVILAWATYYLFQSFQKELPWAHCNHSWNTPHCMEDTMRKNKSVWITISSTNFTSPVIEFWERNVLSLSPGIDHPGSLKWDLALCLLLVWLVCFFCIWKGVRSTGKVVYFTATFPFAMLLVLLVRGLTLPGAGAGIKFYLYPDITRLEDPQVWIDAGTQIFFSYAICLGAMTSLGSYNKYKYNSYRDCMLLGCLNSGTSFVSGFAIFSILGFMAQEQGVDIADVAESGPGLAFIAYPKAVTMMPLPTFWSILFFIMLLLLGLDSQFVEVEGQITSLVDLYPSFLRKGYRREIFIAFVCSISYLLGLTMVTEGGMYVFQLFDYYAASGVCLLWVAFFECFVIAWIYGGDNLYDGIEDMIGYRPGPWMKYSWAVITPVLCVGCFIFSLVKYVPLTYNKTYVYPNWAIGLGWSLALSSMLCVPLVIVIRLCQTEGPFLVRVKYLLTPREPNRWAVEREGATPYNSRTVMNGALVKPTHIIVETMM
Kind of experiment: hTAUT1 competition uptake assay in HEK-TREx-TAUT1 cells. The arrangement: expressed in transfected cells; host or cells: HEK-TREx cells (HEK-TREx-TAUT1 inducible line). The note with it: HEK-TREx-TAUT1 cells induced with tetracycline; ^3H-GABA radiolabel (taurine: ^3H-taurine per Example 9); 15 min, room temperature. The format is cell-based. On the procedure: A modified competition uptake assay was developed to determine the ability of a test compound(s) to inhibit the uptake of radiolabeled substrates into HEK-TREx-TAUT1 cells induced to over-express hTAUT. The results are stated as affinities (IC50).
The competition uptake assay were prepared as follows: Compounds were prepared for assay by diluting a 100 mM stock concentration (in DMSO) to the appropriate working concentration. Typically, seven-point dose response curves were prepared starting at a final assay concentration of 1 mM and carrying out three-fold dilutions. These dilutions were prepared by making a working “compound” plate that contained a 2× solution of the desired starting concentration of each test compound in duplicate in row A of a v-bottom microtiter plate. Six 3-fold serial dilutions (from row B to G) were made into the HBSS assay buffer (9.8 g/L Hank's Balance Salts (Sigma; H-1387), 2.6 g/L HEPES (10 mM) (Sigma; H-3375), 0.35 g/L NaHCO3 (4.2 mM) (Sigma; S-6297), pH to 7.4 with 5N NaOH) (with the appropriate amount of DMSO so that the DMSO concentration remains constant at all dilutions). The resulting “compound” plate contained serial dilutions of six compounds in duplicate.
^3H-GABA was diluted into HBSS buffer to a final concentration of 4,000 cpm/μl. Enough solution was prepared to allow addition of 25 μl/well (the final concentration was 100,000 cpm/well).
HEK-TREx-hTAUT cells, plated in 96-well plates and treated with tetracycline (or tet analog (e.g., doxycycline), were removed from the incubator. Growth media was removed from the cells, and the cells were washed twice in room temperature HBSS (100 μl/well/wash) using a 96-well plate washer (Bio Tek ELX405). Alternatively, cells were washed manually with equivalent volumes using a multichannel pipettor. Immediately before beginning the assay, the final 100 μl wash solution was removed from the cells by aspiration.
Using a 96-well pipettor, 25 μl from the “compound” plate was added to each well of the cell plate. The assay was started by adding 25 μl of the ^3H-GABA working solution. The plate was incubated at room temperature for 15 minutes. The assay was stopped by washing the cells four times with ice-cold HBSS buffer using a ELX 405 plate washer (100 μl buffer/well/wash) having an angled buffer dispenser.
Scintillation fluid (200 μl) (Optiphase Supermix (Perkin Elmer) was added to each well, and the plate was covered with a 96-well adhesive plate cover and placed on a shaker for 10 minutes. The plates were counted on a 96-well plate scintillation counter for 60 sec/well. The data were analyzed using a sigmoidal dose response curve-fitting program ((Prism, GraphPad, Inc, San Diego, Calif.; equation: one-site competition).
FIG. 7 depicts the results of a competition experiment using HEK-TREx-TAUT1 cells. ^3H-taurine was used as the substrate and unlabeled taurine was used as the competitor. The competition experiment was performed as described in Example 7. Non-specific uptake was determined by measuring the uptake into cells not induced to express the transporter (“no tet”). […] In control cells, uptake of labeled taurine remained at background levels and was largely unaffected by an excess of unlabeled taurine.
These four compounds, IAA, R,S-Baclofen, GPA, and GABA, were tested in both competition and direct uptake assays. One notable difference in the competition assay format compared to the literature is that ^3H-GABA was used, rather than ^3H-taurine, as the radiolabel. […] Therefore, to develop a competition assay that is as sensitive as possible, ^3H-GABA, a substrate with a much […] affinity, was used.

Experiment [1] has as its target T2, mouse homolog of the transporter (TAUT1) (Mus musculus, UniProt O35316).
T2 sequence (O35316 1-621): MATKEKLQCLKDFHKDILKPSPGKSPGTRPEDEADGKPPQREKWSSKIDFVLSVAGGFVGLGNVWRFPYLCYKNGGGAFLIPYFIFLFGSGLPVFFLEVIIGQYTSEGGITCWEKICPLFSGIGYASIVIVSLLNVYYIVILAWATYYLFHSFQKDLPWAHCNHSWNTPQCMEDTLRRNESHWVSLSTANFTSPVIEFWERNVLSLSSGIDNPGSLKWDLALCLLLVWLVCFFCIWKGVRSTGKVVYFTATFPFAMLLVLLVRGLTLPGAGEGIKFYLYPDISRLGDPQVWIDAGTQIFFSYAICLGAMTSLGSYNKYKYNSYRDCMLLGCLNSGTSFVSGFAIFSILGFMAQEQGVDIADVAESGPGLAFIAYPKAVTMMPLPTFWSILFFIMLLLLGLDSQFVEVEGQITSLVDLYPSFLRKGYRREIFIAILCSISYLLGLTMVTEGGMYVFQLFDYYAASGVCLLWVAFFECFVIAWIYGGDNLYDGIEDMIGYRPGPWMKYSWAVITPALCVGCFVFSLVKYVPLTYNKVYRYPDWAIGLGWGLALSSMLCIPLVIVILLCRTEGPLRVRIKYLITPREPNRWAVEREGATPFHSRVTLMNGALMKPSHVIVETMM
As to conditions: literature IC50, mouse homolog of the transporter; read-out: Literature Km or IC50; cited from earlier work.

`O=C(O)Cc1c[nH]cn1` [IAA, 4-imidazole acetic acid] gave an IC50 at TAUT1 of 56 µM.

With `NCCCC(=O)O` [GABA, γ-aminobutyric acid], the IC50 in experiment [1] is 500 µM; at TAUT1, 54 µM.

Turning to `N=C(N)NCCC(=O)O` [GPA], the IC50 in experiment [1] was 120 µM; at TAUT1 it was 24 µM. Moreover, on TAUT1, the pIC50 came to 4.7.

As for `NCC(CC(=O)O)c1ccc(Cl)cc1` (centres unmarked) [R,S-Baclofen], on TAUT1, the 50% inhibitory concentration (IC50) is 1100 µM and the pIC50 was determined as 3.0.

As a reminder, the IC50 is the midpoint of a concentration-inhibition curve. Usually pIC50 stands for the IC50 on a negative log10 scale, so that one unit is a factor of ten.
